In patent publication US20110230481A2, “DERIVATIVES OF TETRABROMOBENZIMIDAZOLE, A PROCESS FOR THE PREPARATION THEREOF, A PHARMACEUTICAL COMPOSITION COMPRISING THE SAME, A METHOD OF USING THE SAME, A METHOD FOR MODULATING OR REGULATING SERINE/THREONINE KINASES, AND SERINE/THREONINE KINASES MODULATING AGENT” (SELVITA S.A., priority 2009, published 2011):

Legend:
Assay in all cases: KINOMEscan Max
Type in all cases: binding
[1] = target: ABL1(E255K)-phosphorylated) (Homo sapiens, UniProt P00519, E255K)
How it was run: (§1)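 Immobilized active-site directed ligand captures DNA-tagged kinase unless test compound competes it off; captured kinase is then quantified by qPCR of the DNA tag.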

[2] = target: ABL1(H396P)nonphosphorylated (Homo sapiens, UniProt P00519, H396P)
How it was run: as §1

[3] = target: ABL1(T315I)-phosphorylated (Homo sapiens, UniProt P00519, T315I)
How it was run: as §1

[4] = target: T1, ACVRL1 (Homo sapiens, UniProt P37023)
T1 construct: DNA tag (qPCR label); purchased Ambit Kinomescan (contract screening)
How it was run: as §1

[5] = target: T2, BRSK2 (Homo sapiens, UniProt Q8IWQ3)
T2 construct: DNA tag (qPCR read-out)
How it was run: as §1

[6] = target: T3, CDKL5 (Homo sapiens, UniProt O76039)
T3 construct: DNA tag (qPCR read-out)
How it was run: as §1

[7] = target: T4, DDR1 (Homo sapiens, UniProt Q08345)
T4 construct: purchased Ambit (KINOMEscan Max panel service)
How it was run: as §1

[8] = target: T5, EPHA3 (Homo sapiens, UniProt P29320)
T5 construct: DNA tag (qPCR read-out)
How it was run: as §1

[9] = target: T6, EPHB2 (Homo sapiens, UniProt P29323); settings: 1 μM
T6 construct: purchased Ambit (KINOMEscan Max service)
How it was run: as §1

[10] = target: EPHB6 (Homo sapiens, UniProt O15197)
How it was run: as §1

[11] = target: T7, ERBB4 (Homo sapiens, UniProt Q15303)
T7 construct: purchased Ambit Kinomescan (contract panel, KINOMEscan Max)
How it was run: as §1

[12] = target: ERK3 (Homo sapiens, UniProt Q16659)
How it was run: as §1

[13] = target: FGFR2 (Homo sapiens, UniProt P21802)
How it was run: as §1

[14] = target: T8, FGFR3(G697C) (Homo sapiens, UniProt P22607, G697C)
T8 construct: purchased Ambit Kinomescan (contract panel, KINOMEscan Max)
How it was run: as §1

[15] = target: T9, IKK-alpha (Homo sapiens, UniProt O15111)
T9 construct: DNA tag (qPCR read-out); purchased Ambit Kinomescan
How it was run: as §1

[16] = target: T10, MAP3K15 (Homo sapiens, UniProt Q6ZN16)
T10 construct: purchased Ambit Kinomescan (contract panel)
How it was run: as §1

[17] = target: MEK3 (Homo sapiens, UniProt P46734)
How it was run: as §1

[18] = target: T11, MEK4 (Homo sapiens, UniProt P45985)
T11 construct: purchased Ambit (KINOMEscan Max service)
How it was run: as §1

[19] = target: T12, MERTK (Homo sapiens, UniProt Q12866)
T12 construct: purchased Ambit (KINOMEscan Max service)
How it was run: as §1

[20] = target: MINK (Homo sapiens, UniProt Q8N4C8)
How it was run: as §1

[21] = target: NDR2 (Homo sapiens, UniProt Q9Y2H1)
How it was run: as §1

[22] = target: NEK3 (Homo sapiens, UniProt P51956)
How it was run: as §1

[23] = target: PCTK1 (Homo sapiens, UniProt Q00536)
How it was run: as §1

[24] = target: T13, PIK3CA(C420R) (Homo sapiens, UniProt P42336, C420R)
T13 construct: DNA tag (qPCR read-out)
How it was run: as §1

[25] = target: PIK3CA(E545K) (Homo sapiens, UniProt P42336, E545K)
How it was run: as §1

[26] = target: T14, PKN1 (Homo sapiens, UniProt Q16512)
T14 construct: DNA tag (qPCR read-out)
How it was run: as §1

[27] = target: T15, PLK4 (Homo sapiens, UniProt O00444)
T15 construct: DNA tag (qPCR read-out)
How it was run: as §1

[28] = target: T16, PRP4 (Homo sapiens, UniProt Q13523)
T16 construct: purchased Ambit (KINOMEscan Max service)
How it was run: as §1

[29] = target: T17, RET (Homo sapiens, UniProt P07949)
T17 construct: DNA tag (qPCR read-out)
How it was run: as §1

[30] = target: T18, RSK3(Kin.Dom.1-N-terminal) (Homo sapiens, UniProt Q15349)
T18 construct: RSK3(Kin.Dom.1-N-terminal); DNA tag (qPCR read-out)
How it was run: as §1

[31] = target: T19, RSK4(Kin.Dom.2-C-terminal) (Homo sapiens, UniProt Q9UK32); settings: 1 μM
T19 construct: RSK4(Kin.Dom.2-C-terminal); DNA tag (qPCR read-out)
How it was run: as §1

[32] = target: T20, TAK1 (Homo sapiens, UniProt O43318)
T20 construct: purchased Ambit (KINOMEscan Max service)
How it was run: as §1

[33] = target: T21, TRKA (Homo sapiens, UniProt P04629)
T21 construct: purchased Ambit Kinomescan (contract screening service)
How it was run: as §1

T10 sequence (Q6ZN16 whole entry): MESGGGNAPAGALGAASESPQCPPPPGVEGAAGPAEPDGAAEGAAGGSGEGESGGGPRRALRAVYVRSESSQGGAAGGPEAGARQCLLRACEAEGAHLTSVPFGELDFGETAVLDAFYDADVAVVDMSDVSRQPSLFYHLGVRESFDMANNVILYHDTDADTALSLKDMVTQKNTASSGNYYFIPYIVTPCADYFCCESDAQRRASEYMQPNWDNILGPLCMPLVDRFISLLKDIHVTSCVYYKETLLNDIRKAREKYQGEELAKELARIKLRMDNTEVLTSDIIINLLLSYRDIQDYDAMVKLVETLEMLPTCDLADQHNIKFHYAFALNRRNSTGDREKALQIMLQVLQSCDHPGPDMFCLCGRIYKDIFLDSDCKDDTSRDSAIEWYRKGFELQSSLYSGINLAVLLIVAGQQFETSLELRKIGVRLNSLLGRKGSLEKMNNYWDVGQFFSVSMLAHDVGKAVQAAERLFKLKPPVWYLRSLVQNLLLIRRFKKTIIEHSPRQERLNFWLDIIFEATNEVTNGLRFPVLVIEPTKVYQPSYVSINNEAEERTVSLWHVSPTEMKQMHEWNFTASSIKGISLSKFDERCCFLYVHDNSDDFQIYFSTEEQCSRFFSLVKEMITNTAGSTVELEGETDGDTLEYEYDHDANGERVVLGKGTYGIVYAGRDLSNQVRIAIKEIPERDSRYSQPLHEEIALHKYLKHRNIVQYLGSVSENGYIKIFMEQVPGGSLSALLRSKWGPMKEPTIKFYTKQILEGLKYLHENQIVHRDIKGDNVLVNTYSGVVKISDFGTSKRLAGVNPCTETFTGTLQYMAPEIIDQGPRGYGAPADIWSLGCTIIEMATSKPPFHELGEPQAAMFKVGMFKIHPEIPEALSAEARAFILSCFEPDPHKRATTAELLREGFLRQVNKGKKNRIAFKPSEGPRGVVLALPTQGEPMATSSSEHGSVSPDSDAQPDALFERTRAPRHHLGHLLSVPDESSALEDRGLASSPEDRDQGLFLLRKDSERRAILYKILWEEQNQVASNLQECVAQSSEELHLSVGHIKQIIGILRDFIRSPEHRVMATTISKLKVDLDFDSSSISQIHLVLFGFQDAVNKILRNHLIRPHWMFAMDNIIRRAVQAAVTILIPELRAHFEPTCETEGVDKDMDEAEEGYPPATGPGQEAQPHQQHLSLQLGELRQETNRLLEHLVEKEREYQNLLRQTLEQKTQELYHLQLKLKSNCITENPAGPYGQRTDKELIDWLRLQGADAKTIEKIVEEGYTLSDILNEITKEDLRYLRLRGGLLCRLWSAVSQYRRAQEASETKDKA
T9 sequence (O15111 whole entry): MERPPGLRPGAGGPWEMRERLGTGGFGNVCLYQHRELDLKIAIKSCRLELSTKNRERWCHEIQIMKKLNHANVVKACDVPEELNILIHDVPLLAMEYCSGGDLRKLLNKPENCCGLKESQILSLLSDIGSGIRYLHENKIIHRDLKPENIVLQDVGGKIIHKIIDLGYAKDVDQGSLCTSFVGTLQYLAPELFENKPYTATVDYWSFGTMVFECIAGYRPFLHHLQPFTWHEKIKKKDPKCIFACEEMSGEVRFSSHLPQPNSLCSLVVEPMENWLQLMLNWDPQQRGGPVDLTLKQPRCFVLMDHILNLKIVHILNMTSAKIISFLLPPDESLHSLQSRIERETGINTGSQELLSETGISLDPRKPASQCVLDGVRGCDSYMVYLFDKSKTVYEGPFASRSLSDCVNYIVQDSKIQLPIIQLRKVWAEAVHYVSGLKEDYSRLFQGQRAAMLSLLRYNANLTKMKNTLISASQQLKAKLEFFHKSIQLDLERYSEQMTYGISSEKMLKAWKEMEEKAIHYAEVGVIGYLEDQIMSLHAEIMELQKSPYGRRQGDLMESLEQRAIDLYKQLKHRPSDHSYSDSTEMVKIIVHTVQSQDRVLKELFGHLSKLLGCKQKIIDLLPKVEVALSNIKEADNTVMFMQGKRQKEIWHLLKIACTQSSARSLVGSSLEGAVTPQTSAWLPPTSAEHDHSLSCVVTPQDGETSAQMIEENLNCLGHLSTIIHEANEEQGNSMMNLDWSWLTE
T20 sequence (O43318 whole entry): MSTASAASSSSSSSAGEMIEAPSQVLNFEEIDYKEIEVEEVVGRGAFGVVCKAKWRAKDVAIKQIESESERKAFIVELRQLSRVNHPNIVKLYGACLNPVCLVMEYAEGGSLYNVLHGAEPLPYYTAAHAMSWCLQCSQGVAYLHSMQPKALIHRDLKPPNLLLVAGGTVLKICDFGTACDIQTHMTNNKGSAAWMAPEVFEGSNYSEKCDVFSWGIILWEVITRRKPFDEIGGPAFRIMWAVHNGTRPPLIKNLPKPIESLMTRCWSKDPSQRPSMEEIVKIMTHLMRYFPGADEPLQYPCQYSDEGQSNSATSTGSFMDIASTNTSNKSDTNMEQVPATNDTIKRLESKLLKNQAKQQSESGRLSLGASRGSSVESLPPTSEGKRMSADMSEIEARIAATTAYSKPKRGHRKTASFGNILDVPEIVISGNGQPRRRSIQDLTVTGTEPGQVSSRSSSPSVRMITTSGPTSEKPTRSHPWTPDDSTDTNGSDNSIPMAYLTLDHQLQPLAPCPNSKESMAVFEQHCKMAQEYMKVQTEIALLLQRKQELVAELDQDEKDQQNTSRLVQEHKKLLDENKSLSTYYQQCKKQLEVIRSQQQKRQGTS
Chain of ERK3 (Q16659 whole entry): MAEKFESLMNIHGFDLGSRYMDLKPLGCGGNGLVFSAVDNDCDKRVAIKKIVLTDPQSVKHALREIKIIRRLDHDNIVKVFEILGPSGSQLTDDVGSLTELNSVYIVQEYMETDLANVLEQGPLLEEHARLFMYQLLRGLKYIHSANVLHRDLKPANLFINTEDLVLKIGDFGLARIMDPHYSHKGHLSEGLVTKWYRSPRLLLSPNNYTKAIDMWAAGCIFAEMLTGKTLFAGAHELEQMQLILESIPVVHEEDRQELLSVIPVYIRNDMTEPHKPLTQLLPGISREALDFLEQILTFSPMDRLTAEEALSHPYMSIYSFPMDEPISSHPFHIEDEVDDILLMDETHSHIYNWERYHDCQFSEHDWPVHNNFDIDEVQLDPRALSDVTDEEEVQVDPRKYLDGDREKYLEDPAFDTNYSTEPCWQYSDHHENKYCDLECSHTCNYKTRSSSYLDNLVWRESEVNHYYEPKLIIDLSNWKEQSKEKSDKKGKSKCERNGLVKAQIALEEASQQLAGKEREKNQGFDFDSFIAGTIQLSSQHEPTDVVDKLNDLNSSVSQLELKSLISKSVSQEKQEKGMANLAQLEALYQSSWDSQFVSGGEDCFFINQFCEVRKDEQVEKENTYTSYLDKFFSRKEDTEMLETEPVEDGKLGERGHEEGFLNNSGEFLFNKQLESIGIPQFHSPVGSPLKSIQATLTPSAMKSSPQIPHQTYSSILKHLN
T4 sequence (Q08345 19-913): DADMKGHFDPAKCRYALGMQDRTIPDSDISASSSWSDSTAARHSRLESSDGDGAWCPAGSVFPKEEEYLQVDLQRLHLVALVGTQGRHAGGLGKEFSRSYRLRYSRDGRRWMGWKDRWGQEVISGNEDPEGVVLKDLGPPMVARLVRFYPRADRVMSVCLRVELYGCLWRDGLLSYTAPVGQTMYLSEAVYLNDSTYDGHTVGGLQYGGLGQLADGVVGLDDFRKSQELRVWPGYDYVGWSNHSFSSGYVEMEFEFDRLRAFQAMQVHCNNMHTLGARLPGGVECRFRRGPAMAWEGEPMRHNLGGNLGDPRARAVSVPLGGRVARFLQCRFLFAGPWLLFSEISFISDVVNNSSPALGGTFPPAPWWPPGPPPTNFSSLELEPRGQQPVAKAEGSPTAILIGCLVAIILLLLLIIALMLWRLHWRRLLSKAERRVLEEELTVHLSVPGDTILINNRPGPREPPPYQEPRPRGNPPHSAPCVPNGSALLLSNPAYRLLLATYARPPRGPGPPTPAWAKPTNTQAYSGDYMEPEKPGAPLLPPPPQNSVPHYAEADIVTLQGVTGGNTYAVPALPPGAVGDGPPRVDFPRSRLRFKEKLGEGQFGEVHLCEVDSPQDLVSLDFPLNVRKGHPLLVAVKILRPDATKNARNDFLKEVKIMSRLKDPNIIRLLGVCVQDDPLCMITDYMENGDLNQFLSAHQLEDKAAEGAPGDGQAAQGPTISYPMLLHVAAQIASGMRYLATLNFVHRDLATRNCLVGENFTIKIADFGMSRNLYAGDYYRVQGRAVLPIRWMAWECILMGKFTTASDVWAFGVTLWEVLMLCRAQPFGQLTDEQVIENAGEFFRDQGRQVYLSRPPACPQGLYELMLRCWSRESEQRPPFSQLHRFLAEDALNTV
T18 sequence (Q15349 59-318 limits assumed): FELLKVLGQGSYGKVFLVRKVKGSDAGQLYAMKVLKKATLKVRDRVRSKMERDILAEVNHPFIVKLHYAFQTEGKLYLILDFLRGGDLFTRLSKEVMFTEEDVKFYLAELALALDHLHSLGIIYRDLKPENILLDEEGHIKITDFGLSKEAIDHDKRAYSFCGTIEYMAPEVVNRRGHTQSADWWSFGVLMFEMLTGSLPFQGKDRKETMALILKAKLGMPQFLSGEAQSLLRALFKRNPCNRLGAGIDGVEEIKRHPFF
T11 sequence (P45985 whole entry): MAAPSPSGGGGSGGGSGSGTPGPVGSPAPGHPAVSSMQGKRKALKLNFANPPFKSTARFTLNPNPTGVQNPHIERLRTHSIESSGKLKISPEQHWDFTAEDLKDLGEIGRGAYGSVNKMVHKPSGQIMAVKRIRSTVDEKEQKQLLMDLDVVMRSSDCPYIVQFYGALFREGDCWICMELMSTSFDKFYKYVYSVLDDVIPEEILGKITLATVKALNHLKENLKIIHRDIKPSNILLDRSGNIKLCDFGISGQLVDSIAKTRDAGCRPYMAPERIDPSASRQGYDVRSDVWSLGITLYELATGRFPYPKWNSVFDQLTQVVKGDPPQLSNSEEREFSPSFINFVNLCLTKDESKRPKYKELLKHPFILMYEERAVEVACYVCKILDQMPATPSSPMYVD

## NCCCNc1nc2c(Br)c(Br)c(Br)c(Br)c2[nH]1 [Compound 11, N-(3-aminopropyl)-4,5,6,7-tetrabromo-1H-benzo[d]imidazol-2-amine]
[1]
  remaining binding at 1 µM: 95%
[2]
  remaining binding at 1 µM: 100%
[3]
  remaining binding at 1 µM: 100%
[4]
  remaining binding at 1 µM: 100%
[5]
  remaining binding at 1 µM: 91%
[6]
  remaining binding at 1 µM: 25%
[7]
  remaining binding at 1 µM: 100%
[8]
  remaining binding at 1 µM: 89%
[9]
  % binding: 72%
[10]
  remaining binding at 1 µM: 95%
[11]
  remaining binding at 1 µM: 100%
[12]
  remaining binding at 1 µM: 75%
[13]
  remaining binding at 1 µM: 77%
[14]
  remaining binding at 1 µM: 100%
[15]
  remaining binding at 1 µM: 24%
[16]
  remaining binding at 1 µM: 100%
[17]
  remaining binding at 1 µM: 78%
[18]
  remaining binding at 1 µM: 82%
[19]
  remaining binding at 1 µM: 70%
[20]
  remaining binding at 1 µM: 100%
[21]
  remaining binding at 1 µM: 100%
[22]
  remaining binding at 1 µM: 93%
[23]
  remaining binding at 1 µM: 100%
[24]
  remaining binding at 1 µM: 100%
[25]
  remaining binding at 1 µM: 92%
[26]
  remaining binding at 1 µM: 100%
[27]
  remaining binding at 1 µM: 100%
[28]
  remaining binding at 1 µM: 84%
[29]
  remaining binding at 1 µM: 100%
[30]
  remaining binding at 1 µM: 100%
[31]
  % binding: 100%
[32]
  remaining binding at 1 µM: 65%
[33]
  remaining binding at 1 µM: 100%
